Reference: patent publication US9340590B2 (priority 2011, dated 2016)
Positions of bridges follow the written chain, without caps; N, C: chain ends. Residues, ends and D or L forms follow the SMILES beside them.

Experiments:
Assay in all cases: cell-based
hNav1.3 = hNav1.3 (Homo sapiens, UniProt Q9NY46); details: IonWorks Quattro, use-dependent block, hNav1.3; read-out: IWQ Use Nav1.3
hNav1.7 = hNav1.7 (Homo sapiens, UniProt Q15858); format: cell-based; details: IonWorks Quattro, use-dependent block, hNav1.7; read-out: IWQ Use Nav1.7
Chain of hNav1.7 (Q15858 whole entry, looked up): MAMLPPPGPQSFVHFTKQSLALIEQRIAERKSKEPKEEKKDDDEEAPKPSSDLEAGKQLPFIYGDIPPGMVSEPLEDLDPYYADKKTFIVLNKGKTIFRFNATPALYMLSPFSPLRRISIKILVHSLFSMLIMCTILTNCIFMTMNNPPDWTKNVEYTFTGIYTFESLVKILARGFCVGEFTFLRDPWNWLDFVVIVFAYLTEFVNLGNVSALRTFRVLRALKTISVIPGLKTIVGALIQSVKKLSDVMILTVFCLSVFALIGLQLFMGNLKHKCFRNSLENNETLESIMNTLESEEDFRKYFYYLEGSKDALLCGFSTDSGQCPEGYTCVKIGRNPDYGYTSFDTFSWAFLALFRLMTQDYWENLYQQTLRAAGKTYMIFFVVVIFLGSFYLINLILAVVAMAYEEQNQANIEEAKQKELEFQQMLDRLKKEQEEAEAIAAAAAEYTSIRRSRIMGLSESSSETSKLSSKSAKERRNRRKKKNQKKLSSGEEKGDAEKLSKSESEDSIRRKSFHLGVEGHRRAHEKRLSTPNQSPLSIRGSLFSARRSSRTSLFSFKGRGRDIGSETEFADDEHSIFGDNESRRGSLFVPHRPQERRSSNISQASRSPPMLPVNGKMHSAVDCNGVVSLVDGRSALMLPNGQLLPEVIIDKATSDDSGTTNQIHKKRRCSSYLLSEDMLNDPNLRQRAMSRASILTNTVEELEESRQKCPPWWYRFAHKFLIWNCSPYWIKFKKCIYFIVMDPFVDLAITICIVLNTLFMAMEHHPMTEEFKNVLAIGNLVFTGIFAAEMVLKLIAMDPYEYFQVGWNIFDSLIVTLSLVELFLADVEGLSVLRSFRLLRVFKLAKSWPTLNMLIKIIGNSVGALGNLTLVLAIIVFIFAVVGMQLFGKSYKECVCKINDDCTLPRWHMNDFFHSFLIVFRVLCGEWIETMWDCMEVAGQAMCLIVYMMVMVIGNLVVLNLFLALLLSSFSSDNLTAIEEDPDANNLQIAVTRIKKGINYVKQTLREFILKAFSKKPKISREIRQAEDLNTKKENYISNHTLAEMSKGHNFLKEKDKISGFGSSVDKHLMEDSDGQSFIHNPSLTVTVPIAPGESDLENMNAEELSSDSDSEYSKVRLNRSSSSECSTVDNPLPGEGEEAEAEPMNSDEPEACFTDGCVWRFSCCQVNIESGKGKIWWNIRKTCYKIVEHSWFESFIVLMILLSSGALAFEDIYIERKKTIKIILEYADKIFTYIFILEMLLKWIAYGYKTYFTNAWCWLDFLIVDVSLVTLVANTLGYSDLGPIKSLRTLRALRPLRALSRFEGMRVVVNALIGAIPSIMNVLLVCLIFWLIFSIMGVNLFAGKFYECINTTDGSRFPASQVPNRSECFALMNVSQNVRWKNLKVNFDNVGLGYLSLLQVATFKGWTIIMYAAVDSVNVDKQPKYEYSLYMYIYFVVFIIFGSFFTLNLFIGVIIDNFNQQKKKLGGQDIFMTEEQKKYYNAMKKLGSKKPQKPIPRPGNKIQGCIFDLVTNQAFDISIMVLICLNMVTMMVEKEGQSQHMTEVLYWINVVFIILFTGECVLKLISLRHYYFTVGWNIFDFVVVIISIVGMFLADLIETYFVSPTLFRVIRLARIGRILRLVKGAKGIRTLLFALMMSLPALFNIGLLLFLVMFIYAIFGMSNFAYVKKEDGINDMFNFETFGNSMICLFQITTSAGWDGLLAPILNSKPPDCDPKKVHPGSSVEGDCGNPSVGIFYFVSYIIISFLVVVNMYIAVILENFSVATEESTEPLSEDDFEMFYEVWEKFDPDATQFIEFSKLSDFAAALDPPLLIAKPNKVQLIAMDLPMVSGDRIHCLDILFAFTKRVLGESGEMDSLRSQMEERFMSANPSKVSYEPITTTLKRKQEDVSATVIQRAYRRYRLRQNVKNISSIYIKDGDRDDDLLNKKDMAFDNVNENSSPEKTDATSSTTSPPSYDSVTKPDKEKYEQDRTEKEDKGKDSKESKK

hNav1.5 = hNav1.5 (Homo sapiens, UniProt Q14524); details: IonWorks Quattro, use-dependent block, hNav1.5; read-out: IWQ Use Nav1.5

Chain of hNav1.3 (Q9NY46 whole entry, looked up): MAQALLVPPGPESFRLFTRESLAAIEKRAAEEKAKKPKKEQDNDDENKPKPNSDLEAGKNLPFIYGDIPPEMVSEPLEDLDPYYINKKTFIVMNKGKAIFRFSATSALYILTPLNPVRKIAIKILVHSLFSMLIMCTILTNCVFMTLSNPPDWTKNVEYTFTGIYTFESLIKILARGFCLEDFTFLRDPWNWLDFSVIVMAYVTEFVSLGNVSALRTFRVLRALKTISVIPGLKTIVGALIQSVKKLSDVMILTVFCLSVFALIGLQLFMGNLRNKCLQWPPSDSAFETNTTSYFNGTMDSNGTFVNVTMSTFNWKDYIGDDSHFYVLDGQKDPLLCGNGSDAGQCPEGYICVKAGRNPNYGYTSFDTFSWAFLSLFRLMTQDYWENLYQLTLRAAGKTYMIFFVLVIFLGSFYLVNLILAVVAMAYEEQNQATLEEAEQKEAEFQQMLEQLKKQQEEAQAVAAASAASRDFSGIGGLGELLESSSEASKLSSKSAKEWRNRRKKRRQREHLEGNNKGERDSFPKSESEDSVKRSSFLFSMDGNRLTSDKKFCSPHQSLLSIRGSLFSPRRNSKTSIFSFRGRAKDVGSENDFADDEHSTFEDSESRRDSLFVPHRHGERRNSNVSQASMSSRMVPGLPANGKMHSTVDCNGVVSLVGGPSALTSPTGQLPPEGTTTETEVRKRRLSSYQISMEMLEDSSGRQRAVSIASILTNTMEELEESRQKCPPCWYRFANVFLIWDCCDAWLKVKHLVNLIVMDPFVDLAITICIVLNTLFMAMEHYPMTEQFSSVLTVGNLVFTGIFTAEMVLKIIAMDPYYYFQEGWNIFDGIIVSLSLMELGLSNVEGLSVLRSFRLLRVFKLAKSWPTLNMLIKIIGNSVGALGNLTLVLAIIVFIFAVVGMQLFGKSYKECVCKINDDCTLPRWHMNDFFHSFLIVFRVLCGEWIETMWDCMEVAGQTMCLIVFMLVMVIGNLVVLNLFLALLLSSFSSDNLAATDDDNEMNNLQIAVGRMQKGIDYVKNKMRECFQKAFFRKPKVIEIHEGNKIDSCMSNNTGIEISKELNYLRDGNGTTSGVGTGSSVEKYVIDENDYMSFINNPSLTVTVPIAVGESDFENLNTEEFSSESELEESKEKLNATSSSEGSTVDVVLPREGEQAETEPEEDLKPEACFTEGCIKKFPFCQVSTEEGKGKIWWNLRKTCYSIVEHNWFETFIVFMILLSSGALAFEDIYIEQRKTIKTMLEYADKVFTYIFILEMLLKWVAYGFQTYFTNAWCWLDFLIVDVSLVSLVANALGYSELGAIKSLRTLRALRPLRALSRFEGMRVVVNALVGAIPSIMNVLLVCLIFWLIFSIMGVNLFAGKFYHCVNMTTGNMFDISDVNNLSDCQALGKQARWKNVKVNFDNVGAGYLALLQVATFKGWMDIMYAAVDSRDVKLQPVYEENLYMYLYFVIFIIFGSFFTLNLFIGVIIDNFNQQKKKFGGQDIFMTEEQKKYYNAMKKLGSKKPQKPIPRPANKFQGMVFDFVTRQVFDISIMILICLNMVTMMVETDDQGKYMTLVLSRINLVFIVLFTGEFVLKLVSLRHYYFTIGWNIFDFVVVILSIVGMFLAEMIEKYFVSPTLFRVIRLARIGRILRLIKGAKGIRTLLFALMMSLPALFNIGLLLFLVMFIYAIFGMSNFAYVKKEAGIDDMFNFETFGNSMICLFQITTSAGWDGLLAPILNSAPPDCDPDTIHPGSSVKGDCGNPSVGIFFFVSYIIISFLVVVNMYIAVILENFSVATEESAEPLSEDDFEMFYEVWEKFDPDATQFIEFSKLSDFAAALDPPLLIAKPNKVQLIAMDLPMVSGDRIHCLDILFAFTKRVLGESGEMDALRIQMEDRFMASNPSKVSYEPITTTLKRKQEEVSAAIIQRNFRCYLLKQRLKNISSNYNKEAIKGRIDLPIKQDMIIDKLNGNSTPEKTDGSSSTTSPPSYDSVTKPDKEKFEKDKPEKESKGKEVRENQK

Row | SMILES | IC50 (hNav1.3) | IC50 (hNav1.7) | IC50 (hNav1.5)
1 | CCCC[C@@H]1NC(=O)[C@H](C)NC(=O)CNC(=O)[C@H](CC(C)C)NC(=O)[C@@H](NC(=O)[C@@H](N)CC(=O)O)CSSC[C@@H]2NC(=O)[C@@H]3CSSC[C@@H](C(=O)N[C@@H](CCCCN)C(=O)N[C@@H](Cc4ccc(O)cc4)C(=O)N[C@H](C(=O)N[C@@H](Cc4ccccc4)C(N)=O)C(C)C)NC(=O)[C@H](Cc4c[nH]c5ccccc45)NC(=O)[C@H](CCCCN)NC(=O)[C@H](Cc4cnc[nH]4)NC(=O)[C@H]([C@@H](C)O)NC(=O)[C@H](CCCNC(=N)N)NC(=O)[C@H](CO)NC(=O)[C@H](CSSC[C@H](NC(=O)[C@H](CCCCN)NC(=O)[C@H](CCCNC(=N)N)NC1=O)C(=O)N[C@@H]([C@@H](C)CC)C(=O)N1CCC[C@H]1C(=O)N[C@@H](CC(=O)O)C(=O)N[C@@H](CC(N)=O)C(=O)N[C@@H](CC(=O)O)C(=O)N[C@@H](CCCCN)C(=O)N3)NC(=O)[C@H](C(C)C)NC(=O)[C@H](CC(C)C)NC(=O)[C@H](CC(N)=O)NC(=O)[C@@H]1CCCN1C(=O)[C@H](CCCNC(=N)N)NC2=O [compound 721] | 410 nM | 150 nM | 45000 nM
2 | CC(C)C[C@@H]1NC(=O)[C@H](C)NC(=O)CNC(=O)[C@H](CC(C)C)NC(=O)[C@@H](NC(=O)[C@@H](N)CC(=O)O)CSSC[C@@H]2NC(=O)[C@@H]3CSSC[C@@H](C(=O)N[C@@H](CCCCN)C(=O)N[C@@H](Cc4ccc(O)cc4)C(=O)N[C@H](C(=O)N[C@@H](Cc4ccccc4)C(N)=O)C(C)C)NC(=O)[C@H](Cc4c[nH]c5ccccc45)NC(=O)[C@H](CCCCN)NC(=O)[C@H](Cc4c[nH]cn4)NC(=O)[C@H]([C@@H](C)O)NC(=O)[C@H](CCCNC(=N)N)NC(=O)[C@H](CO)NC(=O)[C@H](CSSC[C@H](NC(=O)[C@H](CCCCN)NC(=O)[C@H](CCCNC(=N)N)NC1=O)C(=O)N[C@@H](CCC(=O)O)C(=O)N1CCC[C@H]1C(=O)N[C@@H](CC(=O)O)C(=O)N[C@@H](CC(N)=O)C(=O)N[C@@H](CC(=O)O)C(=O)N[C@@H](CCCCN)C(=O)N3)NC(=O)[C@H](C(C)C)NC(=O)[C@H](CC(C)C)NC(=O)[C@H](CC(N)=O)NC(=O)[C@@H]1CCCN1C(=O)[C@H](CCCNC(=N)N)NC2=O [compound 723] | 1200 nM | 380 nM | > 50000 nM
3 | CC(C)C[C@@H]1NC(=O)[C@@H](NC(=O)[C@@H](N)CC(=O)O)CSSC[C@@H]2NC(=O)[C@@H]3CSSC[C@@H](C(=O)N[C@@H](CCCCN)C(=O)N[C@@H](Cc4ccc(O)cc4)C(=O)N[C@H](C(=O)N[C@@H](Cc4ccccc4)C(N)=O)C(C)C)NC(=O)[C@H](Cc4c[nH]c5ccccc45)NC(=O)[C@H](CCCCN)NC(=O)[C@H](Cc4c[nH]cn4)NC(=O)[C@H]([C@@H](C)O)NC(=O)[C@H](CCCNC(=N)N)NC(=O)[C@H](CO)NC(=O)[C@H](CSSC[C@H](NC(=O)[C@H](CCCCN)NC(=O)[C@H](CCCNC(=N)N)NC(=O)[C@H](Cc4ccccc4)NC(=O)[C@H](C)NC(=O)CNC1=O)C(=O)N[C@@H](CCC(=O)O)C(=O)N1CCC[C@H]1C(=O)N[C@@H](CC(=O)O)C(=O)N[C@@H](CC(N)=O)C(=O)N[C@@H](CC(=O)O)C(=O)N[C@@H](CCCCN)C(=O)N3)NC(=O)[C@H](C(C)C)NC(=O)[C@H](CC(C)C)NC(=O)[C@H](CC(N)=O)NC(=O)[C@@H]1CCCN1C(=O)[C@H](CCCNC(=N)N)NC2=O [compound 724] (H-DCLGAFRKCEPDNDKCCRPNLVCSRTHKWCKYVF-NH2; disulfide 2-17, 9-23, 16-30) | 320 nM | 380 nM | 36000 nM
